Assay results from PubChem BioAssay AID248 (DTP/NCI, 2004).
Inconclusive results and toxic doses are left out. Rule as the data show it: active = T/C of 150% or more; inactive = T/C below 125%.

Tested on: L1210 leukemia ip in BDF1 mice, survival T/C
Experiment: NCI In Vivo Anticancer Drug Screen. Data for tumor model L1210 Leukemia (intraperitoneal) in B6D2F1 (BDF1) mice
Conditions: endpoint: mean survival time, higher = longer survival
Summary of the method: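 Value reflects the ratio of survival in compound-treated mice to survival in vehicle-treated controls, with both groups carrying the same transplanted tumor.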

[1] = dose: 100.0 mg/kg/injection, schedule: Q01DX009 (ip), vehicle: Klucel (hydroxypropylcellulose) (HPC)
[2] = dose: 100.0 mg/kg/injection, schedule: Q04DX003 (ip), vehicle: Klucel (hydroxypropylcellulose) (HPC)
[3] = dose: 200.0 mg/kg/injection, schedule: Q01DX009 (ip), vehicle: Klucel (hydroxypropylcellulose) (HPC)
[4] = dose: 200.0 mg/kg/injection, schedule: Q04DX003 (ip), vehicle: Klucel (hydroxypropylcellulose) (HPC)
[5] = dose: 100.0 mg/kg/injection, schedule: Q01DX009 (ip), vehicle: saline with Tween-80
[6] = dose: 100.0 mg/kg/injection, schedule: Q04DX003 (ip), vehicle: saline with Tween-80
[7] = dose: 200.0 mg/kg/injection, schedule: Q04DX003 (ip), vehicle: saline with Tween-80
[8] = dose: 100.0 mg/kg/injection, schedule: Q01DX001 (ip), vehicle: saline
[9] = dose: 200.0 mg/kg/injection, schedule: Q01DX001 (ip), vehicle: saline
[10] = dose: 400.0 mg/kg/injection, schedule: Q01DX001 (ip), vehicle: saline
[11] = dose: 100.0 mg/kg/injection, schedule: Q04DX002 (ip), vehicle: saline with Tween-80
[12] = dose: 200.0 mg/kg/injection, schedule: Q04DX002 (ip), vehicle: saline with Tween-80
[13] = dose: 400.0 mg/kg/injection, schedule: Q04DX002 (ip), vehicle: saline with Tween-80
[14] = dose: 400.0 mg/kg/injection, schedule: Q04DX003 (ip), vehicle: Klucel (hydroxypropylcellulose) (HPC)

Measured: T/C

NC(=O)NC=O
inactive: dose: 50.0 mg/kg/injection, schedule: Q01DX009 (ip), vehicle: Klucel (hydroxypropylcellulose) (HPC) 96 % of control | dose: 50.0 mg/kg/injection, schedule: Q04DX003 (ip), vehicle: Klucel (hydroxypropylcellulose) (HPC) 101 % of control | [1] 102 % of control | [2] 105 % of control | [3] 96 % of control | [4] 115 % of control

O=[N+]([O-])C=C([SH2+])[SH2+].O=[N+]([O-])C=C([SH2+])[SH2+].[Co+3].c1ccc(C[P+](c2ccccc2)(c2ccccc2)c2ccccc2)cc1
inactive: dose: 75.0 mg/kg/injection, schedule: Q04DX003 (ip), vehicle: saline 93 % of control | dose: 150.0 mg/kg/injection, schedule: Q04DX003 (ip), vehicle: saline 93 % of control

NC(CSS(=O)(=O)O)=NCCc1ccccc1
inactive: dose: 3.13 mg/kg/injection, schedule: Q04DX002 (ip), vehicle: Klucel (hydroxypropylcellulose) (HPC) 103 % of control | dose: 6.25 mg/kg/injection, schedule: Q04DX002 (ip), vehicle: Klucel (hydroxypropylcellulose) (HPC) 100 % of control | dose: 12.5 mg/kg/injection, schedule: Q04DX002 (ip), vehicle: Klucel (hydroxypropylcellulose) (HPC) 100 % of control

CC(N)C(=O)NC(CC(=O)O)C(=O)O (stereo not given)
inactive: dose: 25.0 mg/kg/injection, schedule: Q04DX002 (ip), vehicle: saline 98 % of control | dose: 50.0 mg/kg/injection, schedule: Q04DX002 (ip), vehicle: saline 94 % of control | dose: 100.0 mg/kg/injection, schedule: Q04DX002 (ip), vehicle: saline 94 % of control

CN(C)CCC1(CCN(C)C)C(=O)CCc2ccccc21
inactive: dose: 100.0 mg/kg/injection, schedule: Q01DX001 (ip), vehicle: other 97 % of control | dose: 200.0 mg/kg/injection, schedule: Q01DX001 (ip), vehicle: other 103 % of control | dose: 400.0 mg/kg/injection, schedule: Q01DX001 (ip), vehicle: other 103 % of control

CCCC(C)CN (stereo not given)
inactive: dose: 50.0 mg/kg/injection, schedule: Q01DX009 (ip), vehicle: saline with Tween-80 100 % of control | [5] 104 % of control | [6] 100 % of control | [7] 98 % of control

C=C1c2c(Cl)cccc2C(C)(CC)c2cccc(Cl)c21
inactive: dose: 75.0 mg/kg/injection, schedule: Q01DX001 (ip), vehicle: Klucel (hydroxypropylcellulose) (HPC) 96 % of control | dose: 75.0 mg/kg/injection, schedule: Q01DX009 (ip), vehicle: Klucel (hydroxypropylcellulose) (HPC) 94 % of control | dose: 150.0 mg/kg/injection, schedule: Q01DX001 (ip), vehicle: Klucel (hydroxypropylcellulose) (HPC) 98 % of control | dose: 150.0 mg/kg/injection, schedule: Q01DX009 (ip), vehicle: Klucel (hydroxypropylcellulose) (HPC) 96 % of control | dose: 300.0 mg/kg/injection, schedule: Q01DX001 (ip), vehicle: Klucel (hydroxypropylcellulose) (HPC) 95 % of control | dose: 300.0 mg/kg/injection, schedule: Q01DX009 (ip), vehicle: Klucel (hydroxypropylcellulose) (HPC) 99 % of control

CC1CCOC(=O)CCCCC1=O (stereo not given)
inactive: [8] 101 % of control | [9] 90 % of control | [10] 109 % of control

CN(C)c1ccc(/C=N\NC(=O)CCCC(=O)N/N=C/c2ccc(N(C)C)cc2)cc1
inactive: dose: 50.0 mg/kg/injection, schedule: Q01DX001 (ip), vehicle: saline 93 % of control | [8] 96 % of control | [9] 98 % of control | [10] 93 % of control

Cc1c2ccc3ccccc3c2cc2cccc(Cl)c12
inactive: dose: 100.0 mg/kg/injection, schedule: Q01DX001 (ip), vehicle: Klucel (hydroxypropylcellulose) (HPC) 97 % of control | dose: 200.0 mg/kg/injection, schedule: Q01DX001 (ip), vehicle: Klucel (hydroxypropylcellulose) (HPC) 98 % of control | dose: 400.0 mg/kg/injection, schedule: Q01DX001 (ip), vehicle: Klucel (hydroxypropylcellulose) (HPC) 101 % of control

COC(=O)NNc1ccccc1C(=O)OC
inactive: [11] 88 % of control | [12] 88 % of control | [13] 98 % of control

CCCCCCCCCCCCCCCCc1c(C)ncn(C)c1=O
inactive: [2] 98 % of control | [4] 101 % of control | [14] 95 % of control

Cc1ccc(NC(=S)N(CCC#N)C2CCCCC2)cc1
inactive: [1] 101 % of control | [3] 104 % of control | dose: 400.0 mg/kg/injection, schedule: Q01DX009 (ip), vehicle: Klucel (hydroxypropylcellulose) (HPC) 101 % of control

O=C(NCCCl)Nc1cccc(Cl)c1
inactive: dose: 25.0 mg/kg/injection, schedule: Q01DX001 (ip), vehicle: saline with Tween-80 97 % of control | dose: 50.0 mg/kg/injection, schedule: Q01DX001 (ip), vehicle: saline with Tween-80 94 % of control | dose: 100.0 mg/kg/injection, schedule: Q01DX001 (ip), vehicle: saline with Tween-80 86 % of control

CN=C(N)N/N=C/C(C)=N/NC(N)=NC
inactive: dose: 15.0 mg/kg/injection, schedule: Q01DX Z (ip), vehicle: saline 96 % of control | dose: 30.0 mg/kg/injection, schedule: Q01DX Z (ip), vehicle: saline 106 % of control | dose: 60.0 mg/kg/injection, schedule: Q01DX Z (ip), vehicle: saline 104 % of control | dose: 120.0 mg/kg/injection, schedule: Q01DX Z (ip), vehicle: saline 95 % of control

CCOC(=O)c1nc(N)[nH]c(=O)c1CCCCc1ccccc1
inactive: dose: 150.0 mg/kg/injection, schedule: Q01DX001 (ip), vehicle: saline with Tween-80 87 % of control | dose: 300.0 mg/kg/injection, schedule: Q01DX001 (ip), vehicle: saline with Tween-80 89 % of control

[Tl][CH]1C=CC=C1
inactive: dose: 100.0 mg/kg/injection, schedule: Q01DX001 (ip), vehicle: acetone 93 % of control

C[CH2][Pb]([CH2]C)([CH2]C)[O]C(=O)C=C1CCCC1
inactive: dose: 2.5 mg/kg/injection, schedule: Q01DX009 (ip), vehicle: saline with Tween-80 101 % of control

Cc1ccc(N2CCN(C3=CCC(C(C)C)CC3)CC2)cc1Cl (stereo not given)
inactive: [5] 106 % of control

CC12CC3CC(C)(C1)CC(Br)(C3)C2
inactive: dose: 50.0 mg/kg/injection, schedule: Q01DX001 (ip), vehicle: carboxymethylcellulose (CMC) 104 % of control | dose: 100.0 mg/kg/injection, schedule: Q01DX001 (ip), vehicle: carboxymethylcellulose (CMC) 101 % of control | dose: 200.0 mg/kg/injection, schedule: Q01DX001 (ip), vehicle: carboxymethylcellulose (CMC) 113 % of control | dose: 400.0 mg/kg/injection, schedule: Q01DX001 (ip), vehicle: carboxymethylcellulose (CMC) 107 % of control

CCC(=O)/C=C/c1ccccc1OC
inactive: [11] 97 % of control | [12] 105 % of control | [13] 105 % of control

Cc1cccc[n+]1CC(=O)c1ccc(-c2ccc(C(=O)C[n+]3ccccc3)cc2)cc1
inactive: dose: 0.04 mg/kg/injection, schedule: Q04DX003 (ip), vehicle: saline 102 % of control | dose: 0.08 mg/kg/injection, schedule: Q04DX003 (ip), vehicle: saline 104 % of control | dose: 0.15 mg/kg/injection, schedule: Q04DX003 (ip), vehicle: saline 97 % of control

CSC(=O)Oc1ccc([N+](=O)[O-])cc1
inactive: [5] 106 % of control | [6] 104 % of control | dose: 200.0 mg/kg/injection, schedule: Q01DX009 (ip), vehicle: saline with Tween-80 96 % of control | [7] 100 % of control | dose: 400.0 mg/kg/injection, schedule: Q01DX009 (ip), vehicle: saline with Tween-80 101 % of control | dose: 400.0 mg/kg/injection, schedule: Q04DX003 (ip), vehicle: saline with Tween-80 91 % of control

C/C=C\COC(=O)COc1ccc(Cl)cc1
inactive: [2] 94 % of control | [4] 96 % of control | [14] 107 % of control

COC(=O)/C=C/C(Oc1ccc(C)cc1)C(=O)OC (stereo not given)
inactive: dose: 75.0 mg/kg/injection, schedule: Q04DX003 (ip), vehicle: other 98 % of control | dose: 150.0 mg/kg/injection, schedule: Q04DX003 (ip), vehicle: other 96 % of control | dose: 300.0 mg/kg/injection, schedule: Q04DX003 (ip), vehicle: other 98 % of control
